Data: patent publication US20020035061A1, “COMPOSITIONS AND METHODS FOR TREATING INFECTIONS USING CATIONIC PEPTIDES ALONE OR IN COMBINATION WITH ANTIBIOTICS” (priority 1996, published 2002)
Several values for one entry are separate records, joined by “and”; a condition that tells them apart may be missing. Equal values may be shown once. Read-outs that look alike come from different tables or passages of the source.

How the values were obtained:
E. faecium = type: cell-based
E. cloacae = type: cell-based
S. maltophilia = type: cell-based
E. coli = type: cell-based; details: for Peptide MIC values: agarose dilution
S. marcescens = type: cell-based
A. calcoaceticus = type: cell-based
S. pneumoniae = test: Agarose dilution assay (MIC); type: cell-based; details: for Peptide MIC values: agarose dilution
[1] = system: MSSA (Smith, ATCC # 19640); test: In vivo efficacy, MSSA infection; design: species or system S. aureus; details: formulation D; for % Survival: 60 min post-infection, end of eight day observation
P. aeruginosa = type: cell-based; details: for Peptide MIC values: agarose dilution
[2] = system: microorganisms with acquired resistance; test: microbe, parasite or virus in culture; type: cell-based; details: for Peptide MIC: combination with Mupirocin, in µg/mL
E. faecalis = type: cell-based; details: for MIC, Peptide: unmodified parent peptide
[3] = system: inherently resistant microorganisms; test: microbe, parasite or virus in culture; type: cell-based
[4] = S. maltophilia 2, Piperacillin section
[5] = peptide + Piperacillin, S. maltophilia 2

ILKKWPWWPWRRK [MBI 11CN]
MIC (E. faecium; E. faecium EFM001): 8 µg/mL | Peptide MIC values (E. faecium; agarose dilution): 8 µg/mL | MIC (E. cloacae; E. cloacae ECL007): >64 µg/mL | MIC (S. maltophilia; S. maltophilia SMA001): 64 µg/mL | MIC (E. coli; E. coli ECO002): 8 µg/mL | Peptide MIC values (E. coli; E. coli ATCC 25922): 16 µg/mL | Peptide MIC values (E. coli; E. coli NCTC 10418): 4 µg/mL | MIC (S. marcescens; S. marcescens SBSM1): >128 µg/mL | MIC (S. marcescens; S. marcescens SMS003): >128 µg/mL | Peptide MIC values (S. marcescens; agarose dilution, S. marcescens SM82): >128 µg/mL | MIC (A. calcoaceticus; A. calcoaceticus AC001): 128 µg/mL | MIC (S. pneumoniae; S. pneumoniae SBSPN2): >128 µg/mL | Peptide MIC values (S. pneumoniae; S. pneumoniae 406LE8): >128 µg/mL | Peptide MIC values (S. pneumoniae; S. pneumoniae 60120): >128 µg/mL | Peptide MIC values (S. pneumoniae; S. pneumoniae ATCC 49619): 64 µg/mL | % Survival ([1]; 12 mg/kg ip): 0% | % Survival ([1]; 24 mg/kg ip): 50% | mice rescued from MSSA infection ([1]; mice, ip 60 min post-infection, 35.7 mg/kg): 100% | activity ([1]; mice, ip, dose levels lower than 35.7 mg/kg): little or no activity | MIC (P. aeruginosa; P. aeruginosa PA003): >128 µg/mL | Peptide MIC values (P. aeruginosa; P. aeruginosa ATCC 27853): >128 µg/mL | Peptide MIC values (P. aeruginosa; P. aeruginosa NCTC 10662): >128 µg/mL | Peptide MIC + Tobramycin ([2]; A. baumannii ABI001): 16 µg/mL | Tobramycin MIC + Peptide ([2]; A. baumannii ABI001): 4 µg/mL | Peptide MIC Alone ([2]; A. baumannii ABI001, Tobramycin section): 64 µg/mL | Peptide MIC + Piperacillin ([2]; A. calcoaceticus 3): 32 µg/mL | Piperacillin MIC + Peptide ([2]; A. calcoaceticus 3): 16 µg/mL | Peptide MIC Alone ([2]; A. calcoaceticus 3, Piperacillin section): 64 µg/mL | Peptide MIC + Tobramycin ([2]; E. coli EC0006): 0.25 µg/mL | Tobramycin MIC + Peptide ([2]; E. coli EC0006): 4 µg/mL | Peptide MIC Alone ([2]; E. coli EC0006, Tobramycin section): 8 µg/mL | Peptide MIC ([2]; E. faecium): 8 | Peptide MIC + Piperacillin ([2]; P. aeruginosa 22): 32 µg/mL | Piperacillin MIC + Peptide ([2]; P. aeruginosa 22): 4 µg/mL | Peptide MIC Alone ([2]; P. aeruginosa 22, Piperacillin section): 64 µg/mL | Peptide MIC + Piperacillin ([2]; P. aeruginosa 23): 4 µg/mL | Piperacillin MIC + Peptide ([2]; P. aeruginosa 23): 64 µg/mL | Peptide MIC Alone ([2]; P. aeruginosa 23, Piperacillin section): 128 µg/mL | Peptide MIC + Tobramycin ([2]; P. aeruginosa PA032): 64 µg/mL | Tobramycin MIC + Peptide ([2]; P. aeruginosa PA032): 4 µg/mL | Peptide MIC Alone ([2]; P. aeruginosa PA032, Tobramycin section): >128 µg/mL | Peptide MIC ([2]; S. aureus): 16 | Peptide MIC + Piperacillin ([2]; S. maltophilia 2): 32 µg/mL | Piperacillin MIC + Peptide ([2]; S. maltophilia 2): 16 µg/mL | Peptide MIC Alone [2, 4]: 64 µg/mL | Peptide MIC + Tobramycin ([2]; S. maltophilia SMA029): 64 µg/mL | Tobramycin MIC + Peptide ([2]; S. maltophilia SMA029): 2 µg/mL | Peptide MIC Alone ([2]; S. maltophilia SMA029, Tobramycin section): >128 µg/mL | Peptide MIC + Tobramycin ([2]; S. maltophilia SMA030): 64 µg/mL | Tobramycin MIC + Peptide ([2]; S. maltophilia SMA030): 2 µg/mL | Peptide MIC Alone ([2]; S. maltophilia SMA030, Tobramycin section): >128 µg/mL | FIC ([2]; peptide + Piperacillin, A. calcoaceticus 3): 1.00 | FIC ([2]; peptide + Piperacillin, P. aeruginosa 22): 0.52 | FIC ([2]; peptide + Piperacillin, P. aeruginosa 23): 0.53 | FIC [2, 5]: 0.75 | FIC ([2]; peptide + Tobramycin, A. baumannii ABI001): 0.50 | FIC ([2]; peptide + Tobramycin, E. coli EC0006): 0.53 | FIC ([2]; peptide + Tobramycin, P. aeruginosa PA032): 0.50 | FIC ([2]; peptide + Tobramycin, S. maltophilia SMA029): 0.27 | FIC ([2]; peptide + Tobramycin, S. maltophilia SMA030): 0.27 | MIC (E. faecalis; E. faecalis EFS001): 32 µg/mL

ILRWPWWPWRRK [MBI 11B7CN]
MIC (E. faecium; E. faecium strain EFM001): 4 µg/mL | MIC, Peptide (E. cloacae; E. cloacae ECL007, unmodified parent peptide): 128 µg/mL | MIC (E. cloacae; E. cloacae strain ECL0009): 32 µg/mL | Peptide MIC + Ceftriaxone ([3]; P. aeruginosa): 64 µg/mL | Peptide MIC Alone ([3]; P. aeruginosa, Ceftriaxone section): 128 µg/mL | Peptide MIC + Piperacillin ([3]; S. aureus MRSA): 2 µg/mL | Peptide MIC Alone ([3]; S. aureus MRSA, Piperacillin section): 4 µg/mL | Peptide MIC Alone ([3]; S. maltophilia, Ceftriaxone section): 32 µg/mL | FIC ([3]; peptide + Ceftriaxone, P. aeruginosa): 0.50 | FIC ([3]; peptide + Piperacillin, S. aureus MRSA): 0.50 | MIC, Peptide (S. maltophilia; S. maltophilia SMA002, unmodified parent peptide): 16 µg/mL | MIC (S. maltophilia; S. maltophilia strain SMA004): 128 µg/mL | MIC, Peptide (E. coli; E. coli ECO005, unmodified parent peptide): 4 µg/mL | MIC (E. coli; E. coli strain ECO002): 8 µg/mL | MIC, Peptide (S. marcescens; S. marcescens SMS003, unmodified parent peptide): >128 µg/mL | MIC (S. marcescens; S. marcescens strain SBSM1): >128 µg/mL | MIC, Peptide (A. calcoaceticus; A. calcoaceticus AC002, unmodified parent peptide): 2 µg/mL | MIC (A. calcoaceticus; A. calcoaceticus strain AC003): 32 µg/mL | MIC (S. pneumoniae; S. pneumoniae strain SBSPN3): >128 µg/mL | % Survival ([1]; 12 mg/kg ip): 0% | % Survival ([1]; 18 mg/kg ip): 10% | % Survival ([1]; 24 mg/kg ip): 60% | MIC, Peptide (P. aeruginosa; P. aeruginosa PA004, unmodified parent peptide): 128 µg/mL | MIC (P. aeruginosa; P. aeruginosa strain PA004): 128 µg/mL | Ceftriaxone MIC + Peptide ([2]; A. baumannii ABI002): 8 µg/mL | Peptide MIC + Ceftriaxone ([2]; A. baumannii ABI002): 8 µg/mL | Peptide MIC Alone ([2]; A. baumannii ABI002, Ceftriaxone section): 32 µg/mL | Ceftriaxone MIC + Peptide ([2]; A. baumannii ABI005): 8 µg/mL | Peptide MIC + Ceftriaxone ([2]; A. baumannii ABI005): 1 µg/mL | Peptide MIC Alone ([2]; A. baumannii ABI005, Ceftriaxone section): 16 µg/mL | Peptide MIC + Piperacillin ([2]; H. influenzae 1): 1 µg/mL | Piperacillin MIC + Peptide ([2]; H. influenzae 1): 8 µg/mL | Peptide MIC Alone ([2]; H. influenzae 1, Piperacillin section): >128 µg/mL | Peptide MIC + Piperacillin ([2]; S. maltophilia 2): 8 µg/mL | Piperacillin MIC + Peptide ([2]; S. maltophilia 2): 16 µg/mL | Peptide MIC Alone [2, 4]: 128 µg/mL | Peptide MIC + Piperacillin ([2]; S. marcescens 1): 4 µg/mL | Piperacillin MIC + Peptide ([2]; S. marcescens 1): 8 µg/mL | Peptide MIC Alone ([2]; S. marcescens 1, Piperacillin section): >128 µg/mL | FIC ([2]; peptide + Ceftriaxone, A. baumannii ABI002): 0.50 | FIC ([2]; peptide + Ceftriaxone, A. baumannii ABI005): 0.56 | FIC ([2]; peptide + Piperacillin, H. influenzae 1): 0.13 | FIC [2, 5]: 1.00 | FIC ([2]; peptide + Piperacillin, S. marcescens 1): 0.27 | MIC, Peptide (E. faecalis; E. faecalis EFS004): 8 µg/mL | MIC, Peptide (E. faecalis; E. faecalis EFS008): 2 µg/mL and 4 µg/mL | MIC (E. faecalis; E. faecalis strain EFS004): 4 µg/mL
